Values quoted from earlier work, collected in patent US20070043208A1, “Crystal structure of erythrocyte binding domain of EBA-175” (priority 2003, published 2007).

System: P. falciparum
Conditions: DNA plasmid prime and recombinant protein boost regimen

RII: 73 kDa erythrocyte-binding domain (616 amino acid fragment) of P. falciparum EBA-175
monkeys protected from P. falciparum challenge: 3 of 4
